Values quoted from earlier work as cited in article PMC12650809, “Evolving Therapeutic Landscape of ROS1-Positive Non-Small Cell Lung Cancer: An Updated Review” (Current Oncology, 2025).
Read-outs that look alike come from different tables or passages of the source. Marks after values point to notes of the source that are not given here.

Assays:
[1] = tested on: ROS1-positive NSCLC; settings: for TKI-Naive ORR (%) / mPFS (Months): TKI-naïve patients; for IC-ORR (%): TKI-naïve patients evaluable for intracranial ORR
[2] = tested on: ROS1-positive NSCLC; parameters: method as in PMID 28520527
[3] = tested on: ROS1-positive NSCLC
[4] = tested on: ROS1-positive NSCLC; parameters: method as in PMID 31584608
[5] = tested on: ROS1^G2032R; parameters: method as in PMID 38070596; settings: solvent-front substitution
[6] = tested on: ROS1^L2086F; parameters: method as in PMID 38070596; settings: for resistance or sensitivity conferred by ROS1^L2086F: L2086F alone or in combination with G2032R or S1986F, preclinical models; for resistance or activity with L2086F: ATP-binding pocket
[7] = tested on: advanced ROS1-positive NSCLC
[8] = tested on: ROS1-positive NSCLC; parameters: method as in PMID 29596029; settings: 127 patients
[9] = tested on: ROS1-positive NSCLC; parameters: method as in PMID 30978502; settings: 34 patients
[10] = tested on: advanced ROS1-positive NSCLC; remark: listed apart in the source
[11] = tested on: ROS1-positive NSCLC; remark: listed apart in the source
[12] = tested on: ROS1-positive NSCLC; parameters: method as in earlier work; settings: TKI-pretreated patients; WCLC 2025 Abstract 4540
[13] = eight patients with baseline BMs
[14] = isolated intracranial progression on crizotinib, n = 18
[15] = 13 patients harboring ROS1^G2032R
[16] = previously treated with a ROS1 TKI, n = 113

Cc1cc(Nc2ncc(Cl)c(Nc3ccccc3S(=O)(=O)C(C)C)n2)c(OC(C)C)cc1C1CCNCC1 [Ceritinib, ceritinib]
TKI-Naive ORR (%) [1]: 67%
mPFS (Months) [1]: 19.3 Months
IC-ORR (%) [1]: 25 ^b %
dose reductions required [2]: 68%
ORR ([2]; 32 patients): 62%
median DOR ([2]; 32 patients): 21 months
anorexia ([2]; AEs, predominantly grade 1–2): 56%
diarrhea ([2]; AEs, predominantly grade 1–2): 85%
nausea ([2]; AEs, predominantly grade 1–2): 72%
vomiting ([2]; AEs, predominantly grade 1–2): 45%
ORR ([2]; crizotinib-naïve patients): 67%
median OS ([2]; crizotinib-naïve patients): 24 months
median PFS ([2]; crizotinib-naïve patients): 19.3 months
CNS disease control rate [2, 13]: 63%
patients achieving an objective intracranial response [2, 13]: two

C[C@@H](Oc1cc(-c2cnn(C3CCNCC3)c2)cnc1N)c1c(Cl)ccc(F)c1Cl [Crizotinib, crizotinib]
Notable AEs: diarrhea [3]: 44%
Notable AEs: nausea [3]: 40%
Notable AEs: visual disturbances [3]: 82%
Discontinuation for AEs (%) ([3]; WCLC 2025 Abstract 4540): <1%
Notable AEs: peripheral edema ([3]; WCLC 2025 Abstract 4540): 40%
Main Grade ≥ 3 AEs: hypophosphatemia ([3]; grade ≥ 3): Hypophosphatemia (10%), neutropenia (10%)
Main Grade ≥ 3 AEs: neutropenia ([3]; grade ≥ 3): Hypophosphatemia (10%), neutropenia (10%)
TKI-Naive ORR (%) [1]: 72%
ORR [4]: 69.4%
median PFS [4]: 5.5 months
resistance or sensitivity with ROS1^G2032R [5]: high-level resistance
resistance or sensitivity conferred by ROS1^L2086F [6]: cross-resistance
4-year survival probability [7]: 51%
AEs leading to permanent treatment discontinuation [7]: No AEs led to permanent treatment discontinuation
grade 4 or 5 events [7]: no grade 4 or 5 events
median PFS [7]: 19.3 months
median duration of response (DOR) [7]: 24.7 months
median overall survival (OS) [7]: 51.4 months
median time to response [7]: 7.9 weeks
ORR ([7]; 53 patients): 72%
complete responses (number) ([7]; 53 patients): 6
partial responses (number) ([7]; 53 patients): 32
diarrhea ([7]; treatment-related AEs): 44%
nausea ([7]; treatment-related AEs): 40%
peripheral edema ([7]; treatment-related AEs): 40%
visual disturbances ([7]; treatment-related AEs): 82%
ORR [8]: 72%
median PFS [8]: 15.9 months
ORR [9]: 70%
median PFS [9]: 20 months

CN1CCN(c2ccc(C(=O)Nc3n[nH]c4ccc(Cc5cc(F)cc(F)c5)cc34)c(NC3CCOCC3)c2)CC1 [Entrectinib, entrectinib]
TKI-Naive ORR (%) [1]: 68%
mPFS (Months) [1]: 15.7 Months
IC-ORR (%) [1]: 80 ^a %
resistance or sensitivity with ROS1^G2032R [5]: high-level resistance
resistance or sensitivity conferred by ROS1^L2086F [6]: cross-resistance
ORR ([10]; 168 TKI-naïve patients): 68%
complete responses ([10]; 168 TKI-naïve patients): 13%
median DOR ([10]; 168 TKI-naïve patients): 20.5 months
median OS ([10]; 168 TKI-naïve patients): 47.8 months
median PFS ([10]; 168 TKI-naïve patients): 15.7 months
median intracranial DOR ([10]; baseline BMs): 12.9 months
intracranial ORR ([10]; baseline BMs with measurable disease): 80%
global ORR [10, 14]: 11%
intracranial ORR [10, 14]: 19%
median PFS [10, 14]: 4.7 months

C[C@@H](N)COc1ccc(-c2cnc3ccc(N[C@H](C)c4cccc(F)c4)nn23)cc1 [Taletrectinib, taletrectinib]
Notable AEs: QT prolongation [3]: 18%
Notable AEs: diarrhea [3]: 61%
Notable AEs: dizziness [3]: 15%
Notable AEs: increased AST/ALT [3]: 70%
Notable AEs: nausea [3]: 44%
Notable AEs: vomiting [3]: 41%
Main Grade ≥ 3 AEs: QT prolongation ([3]; grade ≥ 3): 3%
Main Grade ≥ 3 AEs: anemia ([3]; grade ≥ 3): 3%
Main Grade ≥ 3 AEs: diarrhea ([3]; grade ≥ 3): 3%
Main Grade ≥ 3 AEs: increased AST/ALT ([3]; grade ≥ 3): 9%
Main Grade ≥ 3 AEs: neutropenia ([3]; grade ≥ 3): 4%
TKI-Naive ORR (%) [1]: 88.8%
mPFS (Months) [1]: 45.6 Months
IC-ORR (%) [1]: 76.5 ^e %
rate of treatment discontinuation due to toxicity [11]: 6.5%
objective response rate [11, 15]: 61.5%
patients with objective response (number) [11, 15]: 8
diarrhea ([11]; AEs, predominantly grade 1): 61%
nausea ([11]; AEs, predominantly grade 1): 44%
transaminase elevation ([11]; AEs, predominantly grade 1): 70%
confirmed ORR ([11]; TKI-naïve patients, n = 160): 88.8%
median DOR ([11]; TKI-naïve patients, n = 160): 44.2 months
median PFS ([11]; TKI-naïve patients, n = 160): 45.6 months
intracranial ORR ([11]; TKI-naïve, measurable BMs): 76.5%
median intracranial DOR ([11]; TKI-naïve, measurable BMs): 14.7 months
dizziness ([11]; neurological events): 21%
dysgeusia ([11]; neurological events): 15%
intracranial ORR ([11]; previously treated with a ROS1 TKI): 65.6%
ORR [11, 16]: 55.8%
median DOR [11, 16]: 16.6 months
median PFS [11, 16]: 9.7 months
resistance or sensitivity with ROS1^G2032R [5]: some sensitivity
resistance or activity with L2086F [6]: cross-resistance
IC-ORR (%) [12]: 65.6%
TKI-Pretreated ORR (%) [12]: 55.8%
mPFS (Months) [12]: 9.7 Months

COc1cc2nccc(Oc3ccc(NC(=O)C4(C(=O)Nc5ccc(F)cc5)CC4)cc3)c2cc1OC [cabozantinib]
resistance or sensitivity conferred by ROS1^L2086F [6]: potentially retaining sensitivity
resistance or activity with L2086F [6]: preclinical efficacy

CCc1nc(C(N)=O)c(Nc2ccc(N3CCC(N4CCN(C)CC4)CC3)c(OC)c2)nc1NC1CCOCC1 [gilteritinib]
resistance or activity with L2086F [6]: preclinical efficacy
